Assay results published in patent US7091242B2, “Beta-amino acid derivatives as integrin receptor antagonists” (Bayer Aktiengesellschaft, priority 2000, dated 2006).

Tests used:
[1] = tested on: Ramos cells / immobilized VCAM-1 (extracellular domains 1–3); assay: Adhesion of Ramos cells to immobilized VCAM-1 (domains 1–3); format: cell-based; details: Homo sapiens, 1 h
Description: In Vitro Assay: Adhesion of Ramos Cells to Immobilized VCAM-1 (Domains 1–3) Preparation of VCAM-1 (extracellular domains 1–3)
Complementary DNA (cDNA) encoding 7-domain form of VCAM-1 (GenBank accession #M60335) was obtained using Rapid-ScreenTM cDNA library panels (OriGene Technologies, Inc) at Takara Gene Analysis Center (Shiga, Japan). The primers used were 5′-CCAAGGCAGAGTACGCAAAC-3′ (sense) and 5′-TGGCAGGTATTATTAAGGAG-3′ (antisense). PCR amplification of the 3-domain VCAM-1 cDNA was perform using Pfu DNA polymerase (Stratagene) with the following sets of primers: (U-VCAMd1–3) 5′-CCATATGGTACCTGATCAATTTAAAATCGAGACCACCCCAGAA-3′; (L-VCAMd1–3) 5′-CCATATAGCAATCCTAGGTCCAGGGGAGATCTCAACAGTAAA-3′. PCR cycle was 94° C. for 45 sec, 55° C. for 45 sec, 72° C. for 2 min, repeating 15 cycles. After the purification of the PCR product, the fragment was digested with KpnI-AvrII. The digested fragment was ligated into pBluescript IISK(-) (Strategene), which was linearized by digesting with KpnI-XhoI. The ligation was followed by transformation to a Dam/Dcm methylase-free E. coli strain SCS110 (Strategene) to create the donor plasmid pHH7. To direct VCAM-1 molecule into the insect cell secretory pathway, the VCAM-1 coding sequence was fused to signal peptide sequence of honeybee melittin. The resulting melittin-VCAM fusion was placed in correct orientation to the baculovirus polyhedrin promoter. Baculovirus transfer vector containing first 3-domain form VCAM-1 (pH10) was constructed by ligation of 0.9 kb fragment from AvrIIenow/BclI digests of pH7 into SalI/Klenow/BamHI digests of pMelBacB (Invitrogen). Recombinant baculovirus was generated by using Bac-N-Blue™ Transfection kit (Invitrogen) according to the manufacture's instruction. The recombinant virus was amplified by infection to High-Five™ insect cells for 5–6 days, and virus titer was determined by plaque assay.
High-Five™ insect cells were pelleted in a 225 ml conical tube by centrifugation at 1000 rpm for 5 min. After discarding the supernatant, the pellet was resuspended in 1.5×10^9 pfu (MOI=5) of high-titer virus solution, followed by incubation for 1.5 hours at room temperature. The cells were pelleted again and washed once in fresh Express Five™ serum free medium. The cells were pelleted again and finally, resuspended in 200 ml of fresh Express Five™ medium, transferred to a 1,000 ml shaker flask, and incubated in a shaker at 27° C., 130 rpm, for 48 hours before the culture supernatant was collected. […] Protein concentration was determined by using Coomassie protein assay reagent (Pierce) according to the manufacture's instruction. […]
Preparation of Fluorescence Labeled Ramos Cells: […]

SMILES	IC50 [1]	melting point
Cc1ccccc1NC(=O)Nc1ccc(CNC(=O)C2(CNC(=O)c3ccc(C(=O)O)cc3)CCCCC2)cc1 [Example 2, 4-[({[1-({[4-({[(2-methylphenyl)amino]carbonyl}-amino)benzyl]amino}carbonyl)cyclohexyl]methyl}-amino)carbonyl]benzoicacid]	> 10 µM	–
COc1ccc(C(CC(=O)Nc2ccc(NC(=O)Nc3ccccc3C)cc2)NC(=O)c2ccc(C(=O)OC(C)(C)C)cc2)cc1OC (stereo not shown) [Example VII, tert-Butyl-4-{[(1-(3,4-dimethoxyphenyl)-3-{[4-({[(2-methylphenyl)-amino]carbonyl}amino)phenyl]amino}-3-oxopropyl)amino]carbonyl}benzoate]	–	210 to 215 °C
COc1cccc(C(CC(=O)Nc2ccc(NC(=O)Nc3ccccc3C)cc2)NC(=O)c2ccc(C(=O)O)cc2)c1 (stereo not shown) [Example 4, 4-{[(1-(3-methoxy-phenyl)-3-{[4-({[(2-methylphenyl)-amino]carbonyl}amino)phenyl]amino}-3-oxopropyl)amino]carbonyl}benzoic acid]	< 1 µM	275 to 280 °C
COc1ccc(C(CC(=O)Nc2ccc(NC(=O)Nc3ccccc3C)cc2)NC(=O)c2ccc(C(=O)O)cc2)cc1OC (stereo not shown) [Example 1, 4-{[(1-(3,4-Dimethoxyphenyl)-3-{[4-({[(2-methylphenyl)amino]carbonyl}amino)phenyl]amino}-3-oxopropyl)amino]carbonyl}benzoic acid]	< 1 µM	166 °C

Now from value to compound:

IC50 [1]	melting point	SMILES
> 10 µM	214 °C	COc1ccc(C(CC(=O)NCc2ccc(NC(=O)Nc3ccccc3C)cc2)NC(=O)c2ccc(C(=O)O)cc2)cc1OC (stereo not shown) [Example 3, 4-{[(1-(3,4-dimethoxy-phenyl)-3-{[4-({[(2-methyl-phenyl)amino]carbonyl}amino)benzyl]amino}-3-oxopropyl)amino]carbonyl}benzoic acid]
–	223 to 226 °C	COc1ccc(C(CC(=O)NCc2ccc(NC(=O)Nc3ccccc3C)cc2)NC(=O)c2ccc(C(=O)OC(C)(C)C)cc2)cc1OC (stereo not shown) [IX, tert-Butyl-4-{[(1-(3,4-dimethoxyphenyl)-3-{[4-({[(2-methylphenyl)amino]carbonyl}amino)benzyl]amino}-3-oxopropyl)amino]carbonyl}-benzoate]
–	187 to 189 °C	Cc1ccccc1NC(=O)Nc1ccc(CNC(=O)C2(CNC(=O)c3ccc(C(=O)OC(C)(C)C)cc3)CCCCC2)cc1 [VIII, tert-Butyl 4-[({[1-({[4-({[(2-methylphenyl)amino]carbonyl}amino)benzyl]amino}carbonyl)cyclohexyl]methyl}-amino)carbonyl]benzoate]
